# Patent US20260176228A1, “MODULATORS OF LIVER RECEPTOR HOMOLOGUE 1 (LRH-1) AND USES” (Emory University, priority 2022, published 2026)
# What was measured:
# [1] = target: T1, LRH-1 LBD (Homo sapiens, UniProt O00482); assay: FP competition (binding) assay; settings: interval in brackets in the cell
# T1 construct: LRH-1 LBD (residues 299-541) in the pMSC7 vector; His tag; made in house; host or cells: BL21 (DE3) pLysS E. coli
# [2] = target: T2, LRH-1 (Homo sapiens, UniProt O00482); assay: Luciferase reporter (activation) assay in HeLa cells transfected with full-length LRH-1 and SHP-luc reporter; type: cell-based; settings: 24 hours treatment, interval in brackets in the cell
# T2 construct: The transfected plasmids included full-length LRH-1 in a pCI vector (5 ng/well); expressed in transfected cells; host or cells: HeLa cells
# Method: HeLa cells were seeded at a density of 10,000 cells per well in white-walled, clear-bottomed 96-well culture plates. The next day, cells were transfected with LRH-1 and reporters, using Fugene™ HD (Roche; Indianapolis, IN) at a ratio of 5:2 Fugene™ (μl): DNA (μg). The transfected plasmids included full-length LRH-1 in a pCI vector (5 ng/well), and a SHP-luc reporter, encoding the LRH-1 response element and surrounding sequence from the SHP promoter cloned upstream of firefly luciferase in the pGL3 basic vector (50 ng/well). Cells were also co-transfected with a constitutive Renilla luciferase reporter (utilizing the CMV promoter), which was used for normalization of firefly signal (1 ng/well). Control cells received pCI empty vector at 5 ng/well in place of LRH-1-pCI. Agonists were dissolved in DMSO and then diluted into media, with a final concentration of 0.3% DMSO in all wells. Luciferase signal was quantified using the DualGlo™ kit (Promega; Madison, WI). Experiments were conducted at least two times in triplicate. Compounds were synthesized and evaluated in biological assays.
# [3] = target: T1, LRH-1 LBD; assay: Thermal stability assay (Tycho NT.6) of LRH-1 LBD complexed with ligands; type: binding; settings: LRH-1 LBD with 5-fold molar excess of ligand; for Inflection Point (Thermal Stability), shift in parentheses: value in parentheses
# Method: Thermal shift was also assessed for each of the compounds to determine the protein thermal stability. Thermal stability of the LRH-1 LBD complexed with ligands was determined using a Tycho NT.6 Nanotemper. The LRH-1 LBD was incubated with 5-fold molar excess of ligand (final DMSO concentration was 1.4%) overnight at 4° C. in assay buffer (150 mM NaCl, 20 mM Tris-HCl, and 5% glycerol (pH 7.4)). Complexes were centrifuged at high speed for five minutes and then loaded into capillaries. Tryptophan/tyrosine fluorescence was monitored at wavelengths of 330 nm and 350 nm over a 30° C./min gradient (35° C.-95° C.). The inflection point was determined with Tycho NT.6 software. Two separate experiments were conducted in triplicate.
# [4] = tested on: hepatic LRH-1; assay: Liver target gene expression in H-mLRH-1 mice (RNA-seq, RT-qPCR); type: in vivo; settings: 30 mg/Kg IP injection
# Method: FIGS. 2A, 2B, and 2C show the target gene expression driven by 6N-10CA-ME. FIG. 2A is a Volcano Plot showing RNA-seq of H-mLRH-1 mice treated with 3 mg/Kg of 6N-10CA-ME via an intraperitoneal injection. FIG. 2B is a Volcano Plot showing RNA-seq of H-mLRH-1 mice treated with 30 mg/Kg of 6N-10CA-ME via an intraperitoneal injection. FIG. 2C is a RT-qPCR showing target gene expression at 3 and 30 mg/kg doses.
# The tissue distribution of compounds as described herein and the dosage needed for the in vivo activation of hepatic LRH-1 were evaluated. For these studies, H-mLRH-1 mice (male and female; 10 weeks of age) were used. A single dose time course experiment was conducted in which different cohorts of H-mLRH-1 mice (n=6) were given a high dose (i.e., 30 mg/kg compound) via oral and intraperitoneal (IP) delivery. Liver tissue was harvested and the gene expression of Cyp7a1, Scarb1, ApoA4, and Shp was measured using standard qPCR methods at 1, 3, 6, 12, and 24 hrs. The time of peak target gene expression for a dose finding study was selected. Different cohorts of H-mLRH-1 mice were given 6 doses of the compounds using a half-log scale (i.e., 0, 0.003, 0.03, 0.3, 3, and 30 mg/kg) via oral or IP delivery. Collected liver tissue was used to monitor the expression of the genes listed above.
# [5] = target: SF-1 (Homo sapiens, UniProt Q13285); assay: SF-1 LUC-reporter gene activation in cultured cells; type: cell-based
# [6] = tested on: other nuclear receptors (NRs); assay: Nuclear receptor cross-reactivity in reporter cells; type: cell-based; settings: 2 μM in reporter cells; normalized to reference agonist for each receptor
# Method: 6N-10CA-ME was introduced to reporter cells at 2 μM and the activity of respective NRs was tested. Data are normalized relative to activity induced by the appropriate reference agonist for each receptor.
# SF-1 activity was assessed using RT-qPCR for target genes (e.g., Star, Fdps, Hmgcr), though morphological/histological examination of these organs and by monitoring circulating levels of cortisol, aldosterone and androsterone using targeted LC/MS/MS.
# [7] = tested on: H-mLRH-1 mice with diet-induced obesity; assay: Diet-induced obesity (HFD) model, glucose tolerance; type: in vivo; settings: HFD (60% fat) mice, 3 mg/kg, intraperitoneal daily from 12 to 16 weeks of HFD
# Method: Male and female mice were treated with 6N-10CA-ME via an intraperitoneal injection starting at 12 weeks of High Fat Diet (HFD; 60% fat) feeding and continuing daily to 16 weeks of HFD feeding. (Panel A) Summary of body weights of mice in each group at 0, 12, and 16 weeks of HFD feeding. (Panels B and C) Fasting blood glucose (mg/dL) levels of mice in each group at 12 and 16 weeks of HFD feeding. (Panel D) Glucose tolerance tests (GTT) following administration of glucose (2 g/kg) at 12 and 16 weeks of HFD feeding. (Panel E) Area under the curve (AUC) summary of GTT at 12 and 16 weeks of HFD feeding. Data are represented as means+/−SEM. Sample size is 6-17 per group. **** p<0.0001 vs. chow. Data were analyzed with a two-way ANOVA with Tukey multiple comparison test.
# In this study, a mouse model of DIO was used to evaluate the in vivo efficacy of the compounds as described herein, including the ability of the compounds to (1) attenuate hepatic steatosis and (2) improve glucose tolerance and insulin resistance.
# H-mLRH-1 mice (male and female) were fed one of the following diets (OpenSource Diets) for 16 weeks starting at 8 weeks of age: (1) Control Diet (10% fat diet, D12450Ji) or (2) High Fat Diet (HFD, 60% fat; D12492i). […]
# [8] = tested on: diabetic mice; settings: diabetic mice fed DLPC; Lee et al. Nature 2011; cited from earlier work
# T2 sequence (O00482 whole entry): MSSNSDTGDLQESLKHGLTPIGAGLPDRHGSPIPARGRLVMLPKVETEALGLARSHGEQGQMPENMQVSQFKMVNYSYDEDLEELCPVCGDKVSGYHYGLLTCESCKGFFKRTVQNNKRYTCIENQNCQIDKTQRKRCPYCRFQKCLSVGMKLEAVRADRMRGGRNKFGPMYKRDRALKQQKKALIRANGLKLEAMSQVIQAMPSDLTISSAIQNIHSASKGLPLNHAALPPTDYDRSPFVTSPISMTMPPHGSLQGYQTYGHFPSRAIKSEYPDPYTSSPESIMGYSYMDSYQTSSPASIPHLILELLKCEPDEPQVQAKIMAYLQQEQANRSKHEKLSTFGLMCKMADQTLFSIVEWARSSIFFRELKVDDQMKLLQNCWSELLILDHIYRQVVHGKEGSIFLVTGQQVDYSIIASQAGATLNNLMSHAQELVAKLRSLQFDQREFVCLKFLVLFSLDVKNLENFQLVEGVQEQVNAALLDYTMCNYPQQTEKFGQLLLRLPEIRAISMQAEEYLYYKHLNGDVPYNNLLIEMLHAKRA
# T1 sequence (O00482 299-541): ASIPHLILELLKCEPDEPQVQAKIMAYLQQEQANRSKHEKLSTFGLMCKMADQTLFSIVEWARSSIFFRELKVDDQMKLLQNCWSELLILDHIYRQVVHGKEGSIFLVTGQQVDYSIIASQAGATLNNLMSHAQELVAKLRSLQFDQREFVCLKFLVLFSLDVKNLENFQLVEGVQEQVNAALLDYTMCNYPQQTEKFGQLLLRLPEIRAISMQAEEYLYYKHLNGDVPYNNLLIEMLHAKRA
# SF-1, sequence (Q13285 whole entry): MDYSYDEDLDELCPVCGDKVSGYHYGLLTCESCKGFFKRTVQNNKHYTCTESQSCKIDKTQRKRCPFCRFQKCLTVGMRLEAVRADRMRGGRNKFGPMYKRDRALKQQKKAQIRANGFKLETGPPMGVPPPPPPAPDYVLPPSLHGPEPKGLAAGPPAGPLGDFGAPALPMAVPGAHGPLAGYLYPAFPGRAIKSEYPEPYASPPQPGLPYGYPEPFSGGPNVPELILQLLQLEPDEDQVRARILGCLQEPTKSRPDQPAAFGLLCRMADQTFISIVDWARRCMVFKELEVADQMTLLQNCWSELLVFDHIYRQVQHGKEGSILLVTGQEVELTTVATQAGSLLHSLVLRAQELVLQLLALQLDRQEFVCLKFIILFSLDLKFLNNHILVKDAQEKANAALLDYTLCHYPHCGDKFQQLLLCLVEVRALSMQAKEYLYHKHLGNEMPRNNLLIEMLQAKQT
Compound,Ki [1] [nM],EC50 [2] [nM],Inflection Point (Thermal Stability) [3] [°C],"Inflection Point (Thermal Stability), shift in parentheses [3]",Liver target gene expression [4],SF-1 activity (LUC-reporter gene activation) [5],Cross-reactivity with other nuclear receptors [6],Glucose intolerance [7],Glucose tolerance and hepatic fat accumulation [8]
"C=C(c1ccccc1)C12CCC(NS(N)(=O)=O)C1CC(CCOCCCOCCC(=O)O)=C2c1ccccc1 (stereo not drawn) [Compound 6N-10CA-DE, 3-(3-(2-(3-phenyl-3a-(1-phenylvinyl)-6-(sulfamoylamino)-1,3a,4,5,6,6a-hexahydropentalen-2-yl)ethoxy)propoxy) propanoic acid]",480,1200,61,+5.9 °C,–,–,–,–,–
"C=C(c1ccccc1)C12CCC(NS(N)(=O)=O)C1CC(CCCCOCCCCC(=O)O)=C2c1ccccc1 (stereo not drawn) [Compound 6N-10CA-ME, 5-(4-(3-phenyl-3a-(1-phenylvinyl)-6-(sulfamoylamino)-1,3a,4,5,6,6a-hexahydropentalen-2-yl)butoxy) pentanoic acid]",12,50,65,+9.9 °C,elevation of Cyp7a1 and Apoa4 and a reduction in Fasn,displays SF-1 activity,minimal cross-reactivity,reduces glucose intolerance,–
"C=C(c1ccccc1)C12CCC(O)C1CC(CCOCCCOCCC(=O)O)=C2c1ccccc1 (stereo not drawn) [Compound 10CA-DE, 3-(3-(2-(6-hydroxy-3-phenyl-3a-(1-phenylvinyl)-1,3a,4,5,6,6a-hexahydropentalen-2-yl)ethoxy)propoxy) propanoic acid]",10000,3200,57,+1.9 °C,–,–,–,–,–
"C=C(c1ccccc1)C12CCC(O)C1CC(CCCCOCCCCC(=O)O)=C2c1ccccc1 (stereo not drawn) [Compound 10CA-ME, 5-(4-(6-hydroxy-3-phenyl-3a-(1-phenylvinyl)-1,3a,4,5,6,6a-hexahydropentalen-2-yl)butoxy) pentanoic acid]",110,870,59,+3.9 °C,–,–,–,–,–
"CCCCCCCCCCCC(=O)OC[C@H](COP(=O)([O-])OCC[N+](C)(C)C)OC(=O)CCCCCCCCCCC [DLPC, dilauroyl-phosphatidylcholine]",–,–,–,–,–,–,–,–,improved glucose tolerance and reduced hepatic fat accumulation
